{"source": "patent US10443081B2", "about": "“Methods for the expression of peptides and proteins” (Numaferm GmbH, priority 2013, dated 2019)", "molecular_target": "T1, HlyA1-IFABP fusion protein (encoded by pIAR_207, SEQ ID NO: 20; IFABP wt accession NP_037200) (Rattus norvegicus, UniProt P02693)", "T1 construct": "pIAR_207", "T1 sequence (P02693 1-132 with tags or gaps)": "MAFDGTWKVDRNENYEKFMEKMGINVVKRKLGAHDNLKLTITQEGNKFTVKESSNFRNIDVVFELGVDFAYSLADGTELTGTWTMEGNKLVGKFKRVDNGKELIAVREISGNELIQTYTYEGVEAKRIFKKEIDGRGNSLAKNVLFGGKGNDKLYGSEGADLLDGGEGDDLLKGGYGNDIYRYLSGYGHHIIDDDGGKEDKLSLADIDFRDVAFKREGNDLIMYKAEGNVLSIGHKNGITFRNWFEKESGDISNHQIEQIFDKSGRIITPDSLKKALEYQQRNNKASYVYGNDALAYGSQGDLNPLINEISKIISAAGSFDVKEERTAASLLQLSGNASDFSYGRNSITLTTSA", "assay": "Fluorescence spectroscopy titration with DAUDA, refolded HlyA1-IFABP", "format": "binding", "conditions": "100 nM protein, 20 mM KH2PO4, 0.25 mM EDTA, pH 7.3, excitation 350 nm, emission 500 nm", "experimental": "SEC analyses of refolded HlyA1-IFABP. A and C: SDS-PAGE gel of elution fractions from SEC analysis of HlyA1-IFABP refolded with Ca^2+ and elution chromatogram of the SEC. B and D: SDS-PAGE gel of elution fractions from SEC analysis of HlyA1-IFABP refolded with EDTA and elution chromatogram of the SEC. E: Purified HlyA1-IFABP in the presence of either Ca^2+ or EDTA were incubated with Factor Xa and protein samples were analyzed by SDS-PAGE at indicated time points. The arrow indicates the position of IFABP. F and G: Functional studies of HlyA1-IFABP using titration experiments with DAUDA. F: HlyA1-IFABP was refolded in the presence of Ca^2+ and purified by SEC. DAUDA was titrated to HlyA1-IFABP, the fluorescence signal at 500 nm was recorded and plotted against the DAUDA concentration. […]\n11-(Dansylamino)undecanoic acid (DAUDA, Cayman Chemical) was prepared as a 1 mM stock solution in 50% isopropanol and 50% buffer (20 mM KH2PO4, 0.25 mM EDTA, pH 7.3) and further diluted to the appropriate concentrations with buffer. […] The fluorescence signal was recorded at a wavelength of 500 nm after excitation at 350 nm using a Fluorolog®-3 (Horiba) (Kim and Frieden (1998) Protein Sci, 7, 1821-1828). […] Fluorescence signals of DAUDA in buffer in the absence of protein was subtracted as background. The corrected and normalized fluorescence signals were plotted against the DAUDA concentration. […]", "note": "pKd: −log10 of the molar value. Like-named read-outs stand apart in the source and are kept apart here.", "data": [{"molecule": "CN(C)c1cccc2c(S(=O)(=O)NCCCCCCCCCCC(=O)O)cccc12", "note": "[DAUDA, 11-(((5-(dimethylamino)-1-naphthalenyl)sulfonyl)amino)-undecanoic acid]", "values": [{"measurement": "pKd", "setting": "refolded in the presence of Ca^2+, purified by SEC, read-out: KD for HlyA1-IFABP refolded in Ca^2+", "value": 6.85}, {"measurement": "pKd", "setting": "refolded/purified in the presence of EDTA, read-out: KD for HlyA1-IFABP refolded in EDTA", "value": 6.58}]}]}
